{"source": "patent EP0300073A1", "about": "(priority 1987, dated 1989)", "key": {"[1]": {"tested_on": "HIV prototype isolate CBL-1", "assay": "in vitro test for anti-HIV activity: prevention of infection of a CD4 positive cell line", "format": "cell-based", "conditions": "Human immunodeficiency virus 1, read-out: concentration able to inhibit the HIV prototype isolate CBL-1 from infecting the CD4 positive cell line", "description": "(§1) In the in vitro test for anti-HIV activity, a CD4 positive cell line was used."}, "RF": {"tested_on": "RF", "assay": "in vitro test for anti-HIV activity: prevention of infection of a CD4 positive cell line", "format": "cell-based", "conditions": "Human immunodeficiency virus 1, isolate RF, read-out: concentration required to prevent infection of the CD4 positive cell line", "description": "as §1"}, "AIDS": {"tested_on": "AIDS", "assay": "clinical use in AIDS patients (case history, fusidic acid added to the therapeutic regimen)", "format": "in vivo, human", "method": "Since it is known that fusidic acid can penetrate phagocytic cells and kill intracellular bacteria, fusidic acid was administered to AIDS patients with opportunistic infections in the hope that it might assist other antibiotics in combatting these infections. […] The present invention is based on this unexpected finding.\nThe patient, a person with a past history of hepatitis (HBsAG positive) and recurrent seborrhoic dermatitis was well until 1984 when they consulted a physician since they were suffering from lethargy, fever and weight loss. […] They remained stable with no further deterioration until 1986 when they suffered further weight loss and diarrhoea. […] Mycobacterium hominis was grown from both the stool and the blood following the detection of acid fast bacilli in a lymph node biopsy. The patient was given isoniazid, ethambutol and rifampicin as well as antiparasitic and local antifungal therapy. After six weeks of treatment there was no improvement with respect to their symptoms and they continued to lose weight (16 kg since admission). […] (orally) was added to their regimen. Two weeks following commencement they became afebrile, began to put on weight and was able to undergo a transurethral prostectomy, following which they returned to work and has been well since. Two months later they had increased their weight by 10 kg."}, "gram negative bacilli": {"tested_on": "gram negative bacilli", "conditions": "cited from earlier work"}, "fungi": {"tested_on": "fungi", "conditions": "cited from earlier work"}, "Coxsackie virus A21": {"tested_on": "Coxsackie virus A21", "conditions": "cited from earlier work"}, "rhinovirus": {"tested_on": "rhinovirus", "conditions": "cited from earlier work"}}, "data": [{"smiles": "CC(=O)O[C@H]1C[C@@]2(C)[C@@H](C[C@@H](O)[C@H]3[C@@]4(C)CC[C@@H](O)[C@@H](C)[C@@H]4CC[C@@]32C)/C1=C(\\CCC=C(C)C)C(=O)O", "note": "[fusidic acid]", "values": [{"measurement": "minimal effective concentration", "setting": "[1]", "value": 50, "unit": "µg/mL"}, {"measurement": "minimal effective concentration", "setting": "RF", "value": 100, "unit": "µg/mL"}, {"measurement": "general condition of AIDS patients", "setting": "AIDS; AIDS patients with opportunistic infections, added to the therapeutic regimen", "value": "remarkable improvement"}, {"measurement": "fever status", "setting": "AIDS; one AIDS patient, 500 mg t.d.s. orally added to isoniazid, ethambutol, rifampicin, antiparasitic and antifungal therapy, two weeks following commencement", "value": "afebrile"}, {"measurement": "weight increase", "setting": "AIDS; one AIDS patient, 500 mg t.d.s. orally added to regimen, two months later", "value": 10, "unit": "kg"}, {"measurement": "activity against gram negative bacilli", "setting": "gram negative bacilli", "value": "weak activity"}, {"measurement": "activity against fungi", "setting": "fungi", "value": "weak activity"}, {"measurement": "in vitro antiviral effect against Coxsackie virus A21", "setting": "Coxsackie virus A21", "value": "some in vitro antiviral effect"}, {"measurement": "in vitro antiviral effect against rhinovirus", "setting": "rhinovirus", "value": "some in vitro antiviral effect"}]}]}
